One experiment addresses T1, human HSP60/10 (Homo sapiens, UniProt P10809).
T1 construct: octa-Histidine tag (TEV-cleavable) (N, cleaved yes); made in house; host or cells: HSP60 in E. coli Rosetta 2 (DE3); HSP10 in Rosetta 2 (DE3) pLysS
In words: HSP60/10-mediated dMDH refolding assay. Conditions: human HSP60/10-dMDH refolding assay. The experiment is classed as biochemical. As for the experimental part:
Reagent preparation: For these assays, four primary reagent stocks were prepared: 1) GroEUES-dMDH or HSP60/10-dMDH binary complex stock; 2) ATP initiation stock; 3) EDTA quench stock; 4) MDH enzymatic assay stock. Denatured MDH (dMDH) was prepared by 2-fold dilution of MDH (5 mg/ml, soluble pig heart MDH from Roche, product #10127248001) with denaturant buffer (7 M guanidine-HCl, 200 mM Tris, pH 7.4, and 50 mM DTT). MDH was completely denatured by incubating at room temperature for 45 min. The binary complex solutions were prepared by slowly adding the dMDH stock to a stirring stock with GroEL (or HSP60) in folding buffer (50 mM Tris-HCl, pH 7.4, 50 mM KCl, 10 mM MgCl2, and 1 mM DTT), followed by addition of GroES (or HSP10). The binary complex stocks were prepared immediately prior to dispensing into the assay plates and had final protein concentrations of 83.3 nM GroEL (Mr 800 kDa) or HSP60 (Mr 400 kDa), 100 nM GroES or HSP10 (Mr 70 kDa), and 20 nM dMDH in folding buffer. For the ATP initiation stock, ATP solid was diluted into folding buffer to a final concentration of 2.5 mM. Quench solution contained 600 mM EDTA (pH 8.0). The MDH enzymatic assay stock consisted of 20 mM sodium mesoxalate and 2.4 mM NADH in reaction buffer (50 mM Tris-HCl, pH 7.4, 50 mM KCl, and 1 mM DTT).
Assay Protocol: First, 30 μL aliquots of the GroEL/ES-dMDH or HSP60/10-dMDH binary complex stocks were dispensed into clear, 384-well polystyrene plates. […] The chaperonin-mediated refolding cycles were initiated by addition of 20 μL of ATP stock (reagent concentrations during refolding cycle: 50 nM GroEL or HSP60, 60 nM GroES or HSP10, 12 nM dMDH, 1 mM ATP, and compounds of 100 μM to 46 nM, 3-fold dilution series). The refolding reactions were incubated at 37° C. […] Next, the assay was quenched by addition of 10 μL of the EDTA to final concentration of 100 mM. […] A340 nm measurements were recorded at 0.5 minutes (start point) and at successive time points until the amount of NADH consumed reached ˜90% (end point, generally between 20-35 minutes). The differences between the start and end point A340 values were used to calculate the % inhibition of the GroEL/ES or HSP60/10 machinery by the compounds. […] Results presented represent the averages of IC50 values obtained from at least quadriplicate (duplicate of duplicate) replicates.

The subject of experiment [1] is Acinetobacter baumannii (ATCC 19606). In words: Bacterial proliferation assay, A. baumannii. The experiment is classed as cell-based. From the text:
Bacterial Strains: Enterococcus faecium—(Orla-Jensen) Schleifer and Kilpper-Balz strain NCTC 7171 (ATCC 19434); Drug sensitive Staphylococcus aureus—Rosenbranch strain Seattle 1945 (ATCC 25923); Methicillin resistant S. aureus (MRSA)—Rosenbach strain HPV107 (ATCC BAA-44); Klebsiella Pneumonia—(Schroeter) Trevisan strain NCTC 9633 (ATCC 13883); Acinetobacter baumannii—Bouvet and Grimont strain 2208 (ATCC 19606); Pseudomonas aeruginosa—(Schroeter) Migula strain NCTC 10332 (ATCC 10145); Enterobacter cloacae—E. cloacae, subsp. cloacae (Jordan) Hormaeche and Edwards strain CDC 442-68 (ATCC 13047).
Growth Media: All bacteria were grown in Brain Heart Infusion (BHI) broth/agar (Becton, Dickinson and Company). All liquid cultures were grown in BHI media supplemented with 25 mg/L Ca^2+ and 12.5 mg/L Mg^2+ to mimic free physiological concentrations of these cations. A 10 mg/mL Ca^2+ stock solution was prepared by dissolving 3.68 g of CaCl2.2H2O in 100 mL of deionized water, and a 10 mg/mL Mg^2+ stock solution was prepared by dissolving 8.36 g of MgCl2.6H2O in 100 mL deionized water. Both stock solutions were filter-sterilized using 0.2 μm pore size cellulose-acetate filters. 2.5 mL of the sterile 10 mg/mL Ca^2+ stock and 1.25 mL of the sterile 10 mg/mL Mg^2+ stock solutions were added per 1 L of autoclaved BHI medium to obtain 25 mg/L Ca^2+ and 12.5 mg/L Mg^2+ ions, respectively.
General Assay Protocol: Stock bacterial cultures were streaked onto BHI agar plates and grown overnight at 37° C. Fresh aliquots of broth were inoculated with single bacterial colonies and the cultures were grown overnight at 37° C. with shaking (240 rpm) in cation adjusted BHI media. The following morning, the overnight cultures were sub-cultured (1:5 dilution) into fresh aliquots of cation adjusted BHI media and grown at 37° C. for 1-2 hours with shaking. After 2 h, cultures were diluted into fresh media to achieve final OD600 readings of 0.017. Aliquots of these diluted cultures (30 μL) were added to clear, flat-bottom, 384-well polystyrene plates that were stamped with 0.5 μL of test compounds in 20 μL media. […] Plates were sealed with “Breathe Easy” oxygen permeable membranes (Diversified Biotech) and left to incubate at 37° C. without shaking (stagnant assay). OD600 nm readings were taken at either 6-8 h (S. aureus, MRSA, K. pneumonia, E. cloacae, and P. aeruginosa) or 24 h (E. faecium and A. baumannii). A second set of baseline control plates were prepared analogously, but without any bacteria added, to correct for possible compound absorbance and/or precipitation. Plates were then read at 600 nm using a Molecular Devices SpectraMax Plus384 microplate reader. […] Results presented represent the averages of EC50 values obtained from at quadriplicate (duplicate of duplicate) replicates.

Where [2] appears, read: read-out: HSP60/10-dMDH Refolding IC50.
[3] abbreviates: log(IC50) ± standard deviation, read-out: HSP60/10-dMDH Refolding Assay log(IC50) (converted).
Where [4] appears, read: ATCC19606, 24 h, read-out: Bacterial Proliferation EC50 A. baumannii.
Setting [5] is: ATCC19606, read-out: log(EC50) Bacterial Proliferation Assay A. baumannii (converted).
The mark [6] stands for this setting: ATCC19606, OD600 at 24 h, read-out: Bacterial Proliferation EC50 A. baumannii.
The mark [7] stands for this setting: ATCC19606, log of EC50 (μM scale), with standard deviation, read-out: log(EC50) Bacterial Proliferation Assay A. baumannii (converted).

Each structure is given as a SMILES string. Where two headings read alike, the source gives them in different places.

T1 sequence (P10809 27-573): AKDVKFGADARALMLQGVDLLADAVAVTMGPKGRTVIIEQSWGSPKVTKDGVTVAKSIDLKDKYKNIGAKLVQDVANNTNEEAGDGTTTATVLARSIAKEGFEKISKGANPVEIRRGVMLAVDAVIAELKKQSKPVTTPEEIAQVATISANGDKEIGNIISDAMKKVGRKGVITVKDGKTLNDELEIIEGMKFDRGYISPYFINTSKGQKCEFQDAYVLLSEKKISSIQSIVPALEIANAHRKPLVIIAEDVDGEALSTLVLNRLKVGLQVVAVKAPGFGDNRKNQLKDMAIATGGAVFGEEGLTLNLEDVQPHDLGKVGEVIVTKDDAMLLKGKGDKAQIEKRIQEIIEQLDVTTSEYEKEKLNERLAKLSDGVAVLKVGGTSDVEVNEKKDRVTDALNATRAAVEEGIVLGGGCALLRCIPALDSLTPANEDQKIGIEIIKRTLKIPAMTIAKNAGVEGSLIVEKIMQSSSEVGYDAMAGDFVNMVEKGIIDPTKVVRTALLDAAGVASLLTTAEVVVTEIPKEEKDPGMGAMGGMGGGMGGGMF

With `O=C(Nc1cccc(Cl)c1)c1cc(Br)cc(Br)c1O` [Compound 9, 3,5-Dibromo-N-(3-chlorophenyl)-2-hydroxybenzamide], the IC50 was 29 µM on human HSP60/10 (setting [2]) and 28.8 µM on human HSP60/10 (setting [3]). In addition, the EC50 in experiment [1] (setting [4]) is 46 µM; in experiment [1] (setting [5]) it was 45.7 µM.

Turning to `O=C(Nc1ccccc1)c1cccc(Br)c1` [Compound 27, 3-Bromo-N-phenylbenzamide], the IC50 on human HSP60/10 (setting [2]) and at human HSP60/10 (setting [3]) was greater than 100 µM throughout. For the same compound, the EC50 in experiment [1] (setting [6]) and in experiment [1] (setting [7]) was greater than 100 µM in each case.

In the case of `COc1c(Br)cc(Br)cc1C(=O)Nc1cccc(Cl)c1` [Compound 37, 3,5-Dibromo-N-(3-chlorophenyl)-2-methoxybenzamide], the IC50 on human HSP60/10 (setting [2]) and on human HSP60/10 (setting [3]) was greater than 100 µM in each case. Further, the EC50 in experiment [1] (setting [6]) and in experiment [1] (setting [7]) was greater than 100 µM throughout.

As to `O=C(Nc1ccc(Sc2nc3ccccc3s2)cc1)c1ccccc1` [Compound 22, N-(4-(Benzo[d]thiazol-2-ylthio)phenyl)benzamide], the IC50 at human HSP60/10 (setting [2]) and at human HSP60/10 (setting [3]) was greater than 100 µM in each case. Further, the EC50 in experiment [1] (setting [6]) and in experiment [1] (setting [7]) was greater than 100 µM each time.

As for `O=C(Nc1ccccc1)c1cc(Br)cc(Br)c1` [Compound 26, 3,5-Dibromo-N-phenylbenzamide], the IC50 at human HSP60/10 (setting [2]) and on human HSP60/10 (setting [3]) was greater than 100 µM throughout. The EC50 in experiment [1] (setting [6]) and in experiment [1] (setting [7]) was greater than 100 µM in each case.

Turning to `COc1c(Br)cccc1C(=O)Nc1ccc(Sc2nc3ccccc3s2)cc1` [Compound 34, N-(4-(Benzo[d]thiazol-2-ylthio)phenyl)-3-bromo-2-methoxybenzamide], the IC50 on human HSP60/10 (setting [2]) and at human HSP60/10 (setting [3]) was greater than 100 µM each time. In addition, the EC50 in experiment [1] (setting [6]) and in experiment [1] (setting [7]) was greater than 100 µM throughout.

For the compound `O=C(Nc1ccc(Sc2nc3ccccc3s2)cc1)c1cccc(Br)c1` [Compound 21, N-(4-(Benzo[d]thiazol-2-ylthio)phenyl)-3-bromobenzamide], the IC50 at human HSP60/10 (setting [2]) and on human HSP60/10 (setting [3]) was greater than 100 µM throughout. The EC50 in experiment [1] (setting [6]) and in experiment [1] (setting [7]) was greater than 100 µM throughout.

As to `COc1ccc(Br)cc1C(=O)Nc1ccccc1` [Compound 43, 5-Bromo-2-methoxy-N-phenylbenzamide], the IC50 on human HSP60/10 (setting [2]) and on human HSP60/10 (setting [3]) was greater than 100 µM each time. In addition, the EC50 in experiment [1] (setting [6]) and in experiment [1] (setting [7]) was greater than 100 µM each time.

With `CC1(C)S[C@@H]2[C@H](NC(=O)[C@H](N)c3ccccc3)C(=O)N2[C@H]1C(=O)O` [Ampicillin, ampicillin, reference compound], the IC50 on human HSP60/10 (setting [2]) and at human HSP60/10 (setting [3]) was greater than 100 µM throughout. Further, the EC50 in experiment [1] (setting [6]) and in experiment [1] (setting [7]) was greater than 100 µM each time.

In the case of `O=C(Nc1cccc(Cl)c1)c1ccccc1O` [Compound 12, N-(3-Chlorophenyl)-2-hydroxybenzamide], the IC50 at human HSP60/10 (setting [2]) and at human HSP60/10 (setting [3]) was greater than 100 µM throughout. Moreover, the EC50 in experiment [1] (setting [6]) and in experiment [1] (setting [7]) was greater than 100 µM in each case.

In the case of `COc1c(Br)cc(Br)cc1C(=O)Nc1ccc(Sc2nc3ccccc3s2)cc1` [Compound 33, N-(4-(Benzo[d]thiazol-2-ylthio)phenyl)-3,5-dibromo-2-methoxybenzamide], the IC50 on human HSP60/10 (setting [2]) and on human HSP60/10 (setting [3]) was greater than 100 µM in each case. Also, the EC50 in experiment [1] (setting [6]) and in experiment [1] (setting [7]) was greater than 100 µM each time.

For the compound `O=C(Nc1ccc(Sc2nc3ccccc3s2)c(Cl)c1)c1ccccc1` [Compound 19, N-(4-(Benzo[d]thiazol-2-ylthio)-3-chlorophenyl)benzamide], the IC50 on human HSP60/10 (setting [2]) and on human HSP60/10 (setting [3]) was greater than 100 µM each time. The EC50 in experiment [1] (setting [6]) and in experiment [1] (setting [7]) was greater than 100 µM each time.

Regarding `O=C(Nc1ccccc1)c1cc(Br)cc(Br)c1O` [Compound 13, 3,5-Dibromo-2-hydroxy-N-phenylbenzamide], the IC50 was 63 µM at human HSP60/10 (setting [2]) and 63.1 µM at human HSP60/10 (setting [3]). For the same compound, the EC50 in experiment [1] (setting [4]) and in experiment [1] (setting [5]) was greater than 100 µM each time.

The record behind these values is patent US20210395210A1, “INHIBITION OF BACTERIAL CHAPERONIN SYSTEMS” (THE TRUSTEES OF INDIANA UNIVERSITY, priority 2018, published 2021).
